According to patent US7601733B2, “5(S)-(2′-hydroxyethoxy)-20(S)-camptothecin and its preparation and use for the treatment of cancer” (priority 2006, dated 2009):

Key:
[1] = cited from earlier work
NCI-H460 xenografts = assay: NCI-H460 xenograft study in nude mice; type: in vivo; conditions: oral, (d×5)2 schedule, deaths/animals
Experimental: Protocol of Comparison Study of 5(RS)-(2′-hydroxyethoxy)-20(S)-camptothecin and 5(S)-(2′-hydroxyethoxy)-20(S)-camptothecin Against NCl-H460 Xenograft in Nude Mice:
Ti is the mean tumor volume.
Percentage tumor growth inhibition was calculated using the formula: Percentage Tumor growth inhibition=100−% T/C.
The other parameter observed was mortality.

[2] = system: Human bone marrow mononuclear cells; assay: Human bone marrow assay (CFU-GM colony inhibition); type: cell-based; conditions: relative to 5(R) diastereoisomer
Experimental: Protocol for Human Bone Marrow Assay:
Methocult™ GF (Cat No: H4534, Poietics, Biowhittakar, USA) medium comprising Methycellulose in Iscove's MDM, Fetal bovine serum, Bovine serum albumin, 2-Mercaptoethanol, L-Glutamine, rhStem cell factor, rhGM-CSF and rhIL-3 was used for the assay. Human bone marrow mononuclear cells (Cat No. 2M-125C, Poietics, Biowhittakar, USA) were mixed with Methocult GF and the cell density was adjusted to 3×10^5 cells/ml. From this preparation, 500 μL aliquots were made and 2.5 μL of 20× drug solution or vehicle was added to each aliquot and mixed thoroughly. 100 μL of clonogenic medium was plated into each well and the plates were allowed to gel at 4° C. for 15 minutes. Plates were incubated at 37° C. in a fully humidified atmosphere of 5% CO2 in an incubator for 14 days. CFU-GM colonies were counted under an inverted microscope as aggregates of 50 cells or more. The percentage colony inhibition was calculated using the following formula: 100−[(number of colonies in drug treated wells/Number of colonies in control wells)×100].
The in vitro potency of the two diastereomers against cancer cell lines had been compared with their in vitro toxicity in healthy cells.

[3] = system: Saos-2 cells over expressing functional BCRP#4; type: cell-based, human
Experimental: (§1) Protocol for Breast Cancer Resistance Protein (BCRP) Assay:
(§2) The anticancer effect of 5(S)-(2′-hydroxyethoxy)-20(S)-camptothecin & 5(R)-(2′-hydroxyethoxy)-20(S)-camptothecin were evaluated versus the racemate 5(RS)-(2′-hydroxyethoxy)-20(S)-camptothecin on Saos-2 cells over expressing functional BCRP#4 and non-functional BCRP mut#10. The human osteosarcoma cell line, Saos-2, was obtained from ATCC (American Type Culture Collection, Cat#HTB-85, Manassas, Va.) and were maintained in DMEM containing 10% fetal bovine serum, 1% penicillin/streptomycin, and 2 mM glutamine. Saos-2 cells were transfected with either BCRP#4 to over express functional BCRP or BCRP#10 to over express non-functional BCRP transporter. The cells were plated in 96-well plates at a density of 1000 cells per each well in a 0.1 ml of medium and allowed to attach overnight. The next morning the medium was gently aspirated and serial dilutions of the compounds to be tested were added. The cells were incubated at 37° C. in a 5% CO2 incubator. […] The amount of the fluorescent dye produced was measured on a Cytofluor® 2300(Millipore, Bedford, Mass.) using an excitation wavelength of 530 nm and emission wavelength of 590 nm. The relative fluorescence units obtained were used to calculate the percentage growth at each concentration in relation to the untreated control values. […]

[4] = system: Saos-2 cells over expressing non-functional BCRP mut#10; type: cell-based, human
Experimental: as §1, §2

Structure (SMILES): CC[C@@]1(O)C(=O)OCc2c1cc1n(c2=O)Cc2cc3ccccc3nc2-1 [camptothecin, Camptothecin]
- water solubility [1]: poorly water soluble

Structure (SMILES): CC[C@@]1(O)C(=O)OCc2c1cc1n(c2=O)[C@@H](OCCO)c2cc3ccccc3nc2-1 [4-(S)-Ethyl-4-hydroxy-12(S)-(2-hydroxyethoxy)-1,12-dihydro-4H-2-oxa-6,12a-diazadibenzo[b,h] fluorene-3,13-dione]
- Mortality (NCI-H460 xenografts; 2 mg/kg): 0/5
- Mortality (NCI-H460 xenografts; 4 mg/kg): 0/5
- safety margin (GI90/GI50) compared with that of the 5(R) diastereoisomer [2]: over twice
- fold more cytotoxic than 5(R)-(2′-hydroxyethoxy)-20(S)-camptothecin [3]: > 2.5 fold
- fold more cytotoxic than 5(R)-(2′-hydroxyethoxy)-20(S)-camptothecin [4]: ~6 fold

Structure (SMILES): CC[C@@]1(O)C(=O)OCc2c1cc1n(c2=O)C(OCCO)c2cc3ccccc3nc2-1 (mixture of isomers) [4(S)-Ethyl-4-hydroxy-12(RS)-(2-hydroxyethoxy)-1,12-dihydro-4H-2-oxa-6,12a-diaza-dibenzo[b,h]fluorine-3,13-dione, reference compound]
- Mortality (NCI-H460 xenografts; 2 mg/kg): 0/5
- Mortality (NCI-H460 xenografts; 4 mg/kg): 0/5
